Measurements taken from patent US20050065118A1, “Organosulfur inhibitors of tyrosine phosphatases” (priority 2001, published 2005).
pIC50: −log10 of the molar value. Several values for one entry are separate records, joined by “and”; a condition that tells them apart may be missing. Equal values may be shown once.

What was measured:
[1] = target: T1, PTP-1B (Homo sapiens, UniProt P18031); assay: PTP-1B inhibition, Malachite Green assay with pIRP substrate; format: biochemical
T1 sequence (P18031 1-435): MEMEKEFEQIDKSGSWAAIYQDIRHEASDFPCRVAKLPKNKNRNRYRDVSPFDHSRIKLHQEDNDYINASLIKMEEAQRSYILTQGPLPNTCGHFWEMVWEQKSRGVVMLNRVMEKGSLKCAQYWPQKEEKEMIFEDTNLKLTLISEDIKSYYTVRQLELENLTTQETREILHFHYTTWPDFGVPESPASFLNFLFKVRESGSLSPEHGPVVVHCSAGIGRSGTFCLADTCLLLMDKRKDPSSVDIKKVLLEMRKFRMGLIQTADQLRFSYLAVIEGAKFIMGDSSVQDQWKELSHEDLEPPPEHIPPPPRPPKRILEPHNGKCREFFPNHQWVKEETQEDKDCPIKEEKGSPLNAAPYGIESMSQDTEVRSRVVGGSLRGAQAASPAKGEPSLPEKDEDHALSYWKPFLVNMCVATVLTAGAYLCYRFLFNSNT
Experimental: The compounds of the present invention are evaluated for biological activity as inhibitors of PTP-1B using, for example, a Malachite Green assay with pIRP as a substrate. The pIRP substrate includes a phosphotyrosine residue, and PTP-1B cleaves the phosphate group from the tyrosine, yielding the peptide and phosphate. The rate of the enzymatic reaction is determined by measuring the phosphate released during the reaction.
The reactants for the assay include 20 mM Tris-HCl, pH 7.4, 2 mM EDTA (ethylaminediamine tetraacetic acid) and 2 mM DTT (dithiothreitol) as the assay buffer, and 1 mM pIRP in assay buffer (1 mg in 0.59 mL buffer) as the substrate stock. The Malachite Green solution is prepared by adding 30 μL of 1% Tween 20 to 1 mL of Malachite Green Solution A. The stock of each compound to be tested is made up as 10 mM in DMSO (dimethylsulfoxide).
The compound to be tested is prepared as 1:5, 1:15.8, 1:50 and 1:158 dilutions from stock in a total volume of […]. The reaction mixtures are prepared in a 96-well microtiter plate as 27.5 μL assay buffer, […] of the diluted compound (to a final concentration of 100, 32, 10 and 3.2 μM), 10 μL of the pIRP substrate solution (to a final concentration of 200 μM) and 10 μL PTPase in assay buffer. The reactants are mixed well, the plate placed in a water bath at 30° C. and incubated for 3 minutes. The reaction is then terminated by adding 100 μL of Malachite Green solution per well, color is allowed to develop for 15 minutes, and the A650 is measured by conventional means.
Unless otherwise indicated, this assay was used to determine activity for the selected compounds whose activity is recorded in the Table.

[2] = target: T2, TC-PTP (Homo sapiens, UniProt P17706); assay: TC-PTP inhibition, pNPP tyrosine phosphatase assay; format: biochemical; conditions: two values in a cell = two determinations
T2 construct: purchased NEB
T2 sequence (P17706 1-317 limits assumed): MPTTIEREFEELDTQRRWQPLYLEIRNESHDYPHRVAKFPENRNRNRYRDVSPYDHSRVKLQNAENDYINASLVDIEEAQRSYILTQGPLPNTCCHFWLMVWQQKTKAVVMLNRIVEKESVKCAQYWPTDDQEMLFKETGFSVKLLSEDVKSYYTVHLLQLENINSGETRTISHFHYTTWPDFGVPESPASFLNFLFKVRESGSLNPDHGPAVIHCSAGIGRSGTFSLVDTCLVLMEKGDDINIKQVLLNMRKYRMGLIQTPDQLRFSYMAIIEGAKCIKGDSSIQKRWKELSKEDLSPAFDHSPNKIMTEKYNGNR
Experimental: (§1) Alternatively, a pNPP assay can be used to screen compounds for tyrosine phosphatase inhibitory activity as follows: A 5× stock of pNPP (p-nitrophenol phosphate) substrate is prepared as 50 mM pNPP in assay buffer prepared as described above. Various tyrosine phosphatase solutions can be prepared as follows: • PTP-1B (SBI purified, 1 mg/mL) as a 1:250 dilution (to a final concentration of 4 μg/mL); • TC-PTP (NEB, 1000 units in 100 μL) as a 1:50 dilution (to a final concentration of 2U/10 μL (4 μg/mL)); • CD45 (Calbiochem, 20 μg, 400 units in 100 μL) as a 1:50 dilution (to a final concentration of 0.8U/10 μL (4 μg/mL)); • LAR (NEB, 1000 units in 200 μL) as a 1:75 dilution (to a final concentration of 0.7U/10 μL (4 μg/mL)); and • PTP-β (UBI, #14-350, 10,000 units, 40 μg/571 μL) as a 1:17.5 dilution (to a final concentration of 10U/10 μL (4 μg/mL));
(§2) The compound to be tested is prepared as 1:16.7 and 1:50 dilutions from stock in a total volume of […] to give final concentrations of 626 and 200 μM. The reaction mixtures are prepared in a 96-well microtiter plate (on ice) as 55 μL assay buffer, 5 μL of the diluted compound (to a final concentration of 31.3 and 10 μM), 20 μL of the pNPP substrate solution (to a final concentration of 10 mM) and 20 μL PTease in assay buffer. The reactants are mixed well, the plate placed in a water bath at 30° C. and incubated for 10 minutes. The reaction is then terminated by adding 100 μL of 2M K2CO3 per well, and the absorbance is measured at 405 nm by conventional means.

[3] = target: T3, PTP-β (Homo sapiens, UniProt P23467); assay: PTP-β inhibition, pNPP tyrosine phosphatase assay; format: biochemical
T3 construct: purchased UBI #14-350
T3 sequence (P23467 1643-1997 limits assumed): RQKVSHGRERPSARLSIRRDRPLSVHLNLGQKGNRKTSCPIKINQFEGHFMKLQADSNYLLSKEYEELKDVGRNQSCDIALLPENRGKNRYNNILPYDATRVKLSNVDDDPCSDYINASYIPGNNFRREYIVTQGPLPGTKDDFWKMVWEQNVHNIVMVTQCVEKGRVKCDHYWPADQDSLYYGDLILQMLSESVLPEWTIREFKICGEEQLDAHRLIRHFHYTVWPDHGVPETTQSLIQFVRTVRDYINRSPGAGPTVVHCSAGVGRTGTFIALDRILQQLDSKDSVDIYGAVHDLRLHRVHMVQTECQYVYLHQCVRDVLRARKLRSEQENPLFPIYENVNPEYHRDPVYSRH
Experimental: as §1, §2

[4] = target: T4, CD-45 (Homo sapiens, UniProt P08575); assay: CD45 inhibition, pNPP tyrosine phosphatase assay; format: biochemical
T4 construct: purchased Calbiochem
T4 sequence (P08575 609-1306 limits assumed): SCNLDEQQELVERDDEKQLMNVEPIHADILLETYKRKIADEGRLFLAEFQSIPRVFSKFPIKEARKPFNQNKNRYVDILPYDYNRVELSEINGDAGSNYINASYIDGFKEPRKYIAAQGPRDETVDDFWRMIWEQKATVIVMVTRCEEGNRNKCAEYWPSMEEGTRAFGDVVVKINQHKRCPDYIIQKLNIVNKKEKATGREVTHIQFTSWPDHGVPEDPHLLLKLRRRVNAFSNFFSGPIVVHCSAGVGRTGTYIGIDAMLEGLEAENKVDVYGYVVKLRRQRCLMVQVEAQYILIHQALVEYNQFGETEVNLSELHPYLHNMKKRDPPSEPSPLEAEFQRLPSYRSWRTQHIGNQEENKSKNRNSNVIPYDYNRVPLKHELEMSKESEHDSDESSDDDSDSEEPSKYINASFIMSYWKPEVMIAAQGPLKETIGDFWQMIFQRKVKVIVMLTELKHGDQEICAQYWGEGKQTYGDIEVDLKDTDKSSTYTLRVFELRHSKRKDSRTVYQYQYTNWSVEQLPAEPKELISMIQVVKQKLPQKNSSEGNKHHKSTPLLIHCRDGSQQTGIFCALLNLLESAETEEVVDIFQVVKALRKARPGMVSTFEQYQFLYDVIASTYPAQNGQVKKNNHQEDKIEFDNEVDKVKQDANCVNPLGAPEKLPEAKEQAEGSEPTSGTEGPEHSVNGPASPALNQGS
Experimental: as §1, §2

| Compound | pIC50 [1] | pIC50 [2] | pIC50 [3] | pIC50 [4] | melting point |
| --- | --- | --- | --- | --- | --- |
| CCOc1cccc(-c2nnc(Nc3ccc(Br)c(Cl)c3)s2)c1 [Example 66, (4-bromo-3-chlorophenyl)[5-(3-ethoxyphenyl)(1,3,4-thiadiazol-2-yl)]amine] | 5.15 | 4.70 | < 4.00 | 4.60 | 204 to 205 °C |
| O=C(O)CCCn1nnnc1-c1cccc(Oc2cccc(-c3nnc(Nc4ccc(Cl)c(Cl)c4)s3)c2)c1 [Example 171] | 5.70 |  |  |  | 137 to 142 °C (dec.) |
| O=C(O)c1ccc(CN(c2ccc(Cl)c(Cl)c2)c2nc(-c3ccc(-c4ccccc4)cc3)cs2)cc1 [Example 168, 4-({(3,4-dichlorophenyl)[4-(4-phenylphenyl)(1,3-thiazol-2-yl)]amino}methyl)benzoic acid.] | 6.00 |  |  |  |  |
| COc1cccc(-c2nn3cc(-c4ccc(-c5ccccc5)cc4)nc3s2)c1 [Example 16, (3-methoxy-1-(6-(4-phenylphenyl)imidazolo(2,1-b)1,3,4-thiadiazolin-2-yl)benzene)] | 4.92 |  | < 4.00 | 4.52 |  |
| Clc1cc(Nc2nnc(-c3cccc(Oc4ccccc4)c3)s2)ccc1Br [Example 135] | 5.22 | 4.70 and 4.92 | < 4.00 | 4.70 |  |
| Clc1ccc(Nc2nnc(-c3cccc(Oc4cccc(-c5nnn[nH]5)c4)c3)s2)cc1Cl [Example 14, {5-[3-(3-(1H-1,2,3,4-tetraazol-5-yl)phenoxy)phenyl](1,3,4-thiadiazol-2-yl)}(3,4-dichlorophenyl)amine] | 5.30 | 4.92 | 4.62 | 5.00 |  |
| O=[N+]([O-])c1cccc(-c2nnc(Nc3cccc(Br)c3)s2)c1 [Example 80, (3-bromophenyl)[5-(3-nitrophenyl)(1,3,4-thiadiazol-2-yl)]amine] | 5.15 | 4.85 and 5.10 | < 4.00 | 4.10 |  |
| O=C(O)c1ccc(N/N=C/c2cccc(Oc3cccc(-c4nnc(Nc5ccc(Cl)c(Cl)c5)s4)c3)c2)cc1 [Example 172] | 6.10 | 5.80 | 4.52 | 4.85 | 259 to 262 °C |
| O=C(O)C(=O)Nc1ccc(CN(c2ccc(Cl)c(Cl)c2)c2nnc(-c3cccc(Oc4cccc(C(F)(F)F)c4)c3)s2)cc1 [Example 169] | 6.00 |  |  |  | 172 to 174 °C |
| COc1cccc(-c2nnc(Nc3ccc(F)c(Cl)c3)s2)c1 [Example 68, (3-chloro-4-fluorophenyl)[5-(3-methoxyphenyl)(1,3,4-thiadiazol-2-yl)]amine] |  |  |  |  | 185 to 187 °C |

Further lines, results first:

| pIC50 [1] | pIC50 [2] | pIC50 [3] | pIC50 [4] | melting point | Compound |
| --- | --- | --- | --- | --- | --- |
| 5.40 |  |  |  |  | O=C(O)c1cccc(Nc2nnc(-c3cc(Oc4cccc(C(F)(F)F)c4)cc(Oc4cccc(C(F)(F)F)c4)c3)s2)c1 [Compound 198, 3-{5-[3,5-Bis-(3-trifluoromethyl-phenoxy)-phenyl]-[1,3,4]thiadiazol-2-ylamino}-benzoic acid] |
| 5.00 |  |  |  |  | O=C(O)c1cccc(Nc2nnc(-c3cc(OCc4ccccc4)cc(OCc4ccccc4)c3)s2)c1 [Compound 188, 3-[5-(3,5-Bis-benzyloxy-phenyl)-[1,3,4]thiadiazol-2-ylamino]-benzoic acid] |
| 6.00 | 6.00 | 5.30 | 5.30 |  | O=C(O)c1ccc(Cn2nc(-c3cccc(Oc4cccc(C(F)(F)F)c4)c3)sc2=Nc2ccc(Cl)c(Cl)c2)cc1 [Compound 187, 4-{2-(3,4-Dichloro-phenylimino)-5-[3{3-trifluoromethyl-phenoxy)-phenyl]-[1,3,4]thiadiaziol-3-ylmethyl}-benzoic acid] |
| 4.92 | 4.82 | 4.51 | 4.77 | 258 to 259 °C | O=C(O)c1cccc(Oc2cccc(-c3nnc(Nc4ccc(Cl)c(Cl)c4)s3)c2)c1 [Example 7, (3-(3-{5[(3,4-dichlorophenyl)amino]-1,3,4-thiadiazol-2-yl}phenoxy)benzoic acid)] |
| 5.30 |  |  |  | 220 °C (dec.) | C/C(=N\OCC(=O)O)c1cccc(Nc2nnc(-c3cccc(Oc4cccc(C(F)(F)F)c4)c3)s2)c1 [Compound 190, [1-(3-{5-[3-(3-Trifluoromethyl-phenoxy)-phenyl]-[1,3,4]thiadiazol-2-ylamino}-phenyl)-ethylideneaminooxy]acetic acid] |
